Assay results from ChEMBL document CHEMBL1201862, “PubChem BioAssay data set” (2004).
Several values for one entry are separate records, joined by “and”; a condition that tells them apart may be missing. Equal entries are not always repeated.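 Protocol summary: plate cells (96-well), add compound at 5 concentrations, incubate 48 h, interpolate endpoints linearly. GI50 is the concentration that inhibits growth by half.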 Activity calls are given as the source filed them. Cut-off read from the data, not from the text of the source: active = GI50 up to about 1.1 µM and inactive = higher.

Key:
Experiment in all cases: NCI anticancer screen, dose series, 48 h
[1] = test system: 786-0
[2] = test system: A498
[3] = test system: BT-549
[4] = test system: CAKI-1
[5] = test system: CCRF-CEM
[6] = test system: COLO 205
[7] = test system: DU-145
[8] = test system: EKVX
[9] = test system: HCC 2998
[10] = test system: HCT-116
[11] = test system: HCT-15
[12] = test system: HL-60
[13] = test system: HOP-62
[14] = test system: HT-29
[15] = test system: Hs-578T
[16] = test system: IGROV-1
[17] = test system: K562
[18] = test system: KM12
[19] = test system: LOX IMVI
[20] = test system: M14
[21] = test system: MCF7
[22] = test system: MDA-MB-231
[23] = test system: MDA-MB-435
[24] = test system: MDA-N
[25] = test system: MOLT-4
[26] = test system: Malme-3M
[27] = test system: NCI-H226
[28] = test system: NCI-H23
[29] = test system: NCI-H460
[30] = test system: NCI/ADR-RES
[31] = test system: OVCAR-3
[32] = test system: OVCAR-4
[33] = test system: OVCAR-5
[34] = test system: OVCAR-8
[35] = test system: PC-3
[36] = test system: RPMI-8226
[37] = test system: RXF 393
[38] = test system: SF-268
[39] = test system: SF-295
[40] = test system: SF-539
[41] = test system: SK-MEL-28
[42] = test system: SK-MEL-2
[43] = test system: SK-OV-3
[44] = test system: SN12C
[45] = test system: SNB-19
[46] = test system: SNB-75
[47] = test system: SR
[48] = test system: SW-620
[49] = test system: T47D
[50] = test system: U-251
[51] = test system: UACC-62
[52] = test system: UO-31
[53] = test system: A549
[54] = test system: ACHN
[55] = test system: HOP-92
[56] = test system: NCI-H522
[57] = test system: SK-MEL-5
[58] = test system: TK-10
[59] = test system: UACC-257

O=c1[nH]nc(Cc2ccccc2)n1CCCl
GI50 [1]: > 100 µM (inactive)
GI50 [2]: > 100 µM (inactive)
GI50 [3]: > 100 µM (inactive)
GI50 [4]: > 100 µM (inactive)
GI50 [5]: > 100 µM (inactive)
GI50 [6]: > 100 µM (inactive)
GI50 [7]: > 100 µM (inactive)
GI50 [8]: > 100 µM (inactive)
GI50 [9]: > 100 µM (inactive)
GI50 [10]: > 100 µM (inactive)
GI50 [11]: > 100 µM
GI50 [12]: > 100 µM (inactive)
GI50 [13]: > 100 µM (inactive)
GI50 [14]: > 100 µM (inactive)
GI50 [15]: > 100 µM (inactive)
GI50 [16]: > 100 µM (inactive)
GI50 [17]: > 100 µM (inactive)
GI50 [18]: > 100 µM (inactive)
GI50 [19]: > 100 µM (inactive)
GI50 [20]: > 100 µM (inactive)
GI50 [21]: > 100 µM (inactive)
GI50 [22]: > 100 µM (inactive)
GI50 [23]: > 100 µM (inactive)
GI50 [24]: > 100 µM (inactive)
GI50 [25]: > 100 µM (inactive)
GI50 [26]: > 100 µM (inactive)
GI50 [27]: > 100 µM (inactive)
GI50 [28]: > 100 µM (inactive)
GI50 [29]: > 100 µM (inactive)
GI50 [30]: > 100 µM (inactive)
GI50 [31]: > 100 µM (inactive)
GI50 [32]: > 100 µM (inactive)
GI50 [33]: > 100 µM (inactive)
GI50 [34]: > 100 µM (inactive)
GI50 [35]: > 100 µM (inactive)
GI50 [36]: > 100 µM (inactive)
GI50 [37]: 90.8 µM (inactive)
GI50 [38]: > 100 µM (inactive)
GI50 [39]: > 100 µM (inactive)
GI50 [40]: > 100 µM (inactive)
GI50 [41]: > 100 µM (inactive)
GI50 [42]: > 100 µM (inactive)
GI50 [43]: > 100 µM (inactive)
GI50 [44]: > 100 µM (inactive)
GI50 [45]: > 100 µM (inactive)
GI50 [46]: > 100 µM (inactive)
GI50 [47]: > 100 µM (inactive)
GI50 [48]: > 100 µM (inactive)
GI50 [49]: > 100 µM (inactive)
GI50 [50]: > 100 µM (inactive)
GI50 [51]: > 100 µM (inactive)
GI50 [52]: > 100 µM (inactive)

C=C(C)C1CCC2(CO)C(O)CC3(C)C(CCC4C5(C)CCC(O)C(C)(C)C5CCC43C)C12 (stereo not given)
GI50 [1]: 8.09 µM (inactive)
GI50 [2]: 10.9 µM (inactive)
GI50 [53]: 10.6 µM (inactive)
GI50 [54]: 3.57 µM (inactive)
GI50 [3]: 11.6 µM (inactive)
GI50 [4]: 3.73 µM (inactive)
GI50 [5]: 50 µM (inactive)
GI50 [7]: 35.6 µM (inactive)
GI50 [8]: 13.9 µM (inactive)
GI50 [10]: 22.4 µM (inactive)
GI50 [11]: 11.9 µM
GI50 [12]: 25.3 µM (inactive)
GI50 [13]: 4.16 µM (inactive)
GI50 [55]: 11.4 µM (inactive)
GI50 [14]: 6.53 µM (inactive)
GI50 [15]: 7.76 µM (inactive)
GI50 [16]: 11.7 µM (inactive)
GI50 [17]: 9.77 µM (inactive)
GI50 [18]: 6.97 µM (inactive)
GI50 [19]: 9.98 µM (inactive)
GI50 [20]: 18.6 µM (inactive)
GI50 [21]: 11.6 µM (inactive)
GI50 [22]: 12.7 µM (inactive)
GI50 [23]: 7.74 µM (inactive)
GI50 [24]: 12.1 µM (inactive)
GI50 [25]: 27.4 µM (inactive)
GI50 [26]: 13.6 µM (inactive)
GI50 [27]: 34.6 µM (inactive)
GI50 [28]: > 10 µM (inactive)
GI50 [29]: 11.8 µM (inactive)
GI50 [56]: 6.58 µM (inactive)
GI50 [30]: 15.3 µM (inactive)
GI50 [31]: 11.4 µM (inactive)
GI50 [33]: > 100 µM (inactive)
GI50 [34]: 3.85 µM (inactive)
GI50 [35]: 6.01 µM (inactive)
GI50 [37]: 2.32 µM (inactive)
GI50 [38]: 8.36 µM (inactive)
GI50 [39]: 2.84 µM (inactive)
GI50 [40]: 12.7 µM (inactive)
GI50 [41]: 10.4 µM (inactive)
GI50 [42]: 10.3 µM (inactive)
GI50 [57]: 5.14 µM (inactive)
GI50 [44]: 16.5 µM (inactive)
GI50 [45]: 5.36 µM (inactive)
GI50 [46]: 3.7 µM (inactive)
GI50 [47]: 42.8 µM (inactive)
GI50 [48]: 21.8 µM (inactive)
GI50 [49]: 1.06 µM (active)
GI50 [58]: 16.1 µM (inactive)
GI50 [50]: 2.81 µM (inactive)
GI50 [59]: 10.5 µM (inactive)
GI50 [52]: 3.82 µM (inactive)

COCC1OC(Sc2ccccc2)C(O)C(OC)C1OC (stereo not given)
GI50 [1]: > 100 µM (inactive)
GI50 [53]: > 100 µM (inactive)
GI50 [54]: > 100 µM (inactive)
GI50 [3]: > 100 µM (inactive)
GI50 [4]: > 100 µM (inactive)
GI50 [5]: > 100 µM (inactive) and 52.4 µM (inactive)
GI50 [6]: > 100 µM (inactive)
GI50 [7]: > 100 µM (inactive)
GI50 [8]: > 100 µM (inactive)
GI50 [9]: > 100 µM (inactive)
GI50 [10]: > 100 µM (inactive)
GI50 [11]: > 100 µM
GI50 [12]: > 100 µM (inactive)
GI50 [13]: > 100 µM (inactive)
GI50 [14]: > 100 µM (inactive)
GI50 [15]: > 100 µM (inactive)
GI50 [16]: > 100 µM (inactive)
GI50 [17]: > 100 µM (inactive)
GI50 [18]: > 100 µM (inactive)
GI50 [19]: > 100 µM (inactive)
GI50 [20]: > 100 µM (inactive)
GI50 [21]: > 100 µM (inactive)
GI50 [22]: > 100 µM (inactive)
GI50 [23]: > 100 µM (inactive)
GI50 [24]: > 100 µM (inactive)
GI50 [25]: > 100 µM (inactive)
GI50 [26]: > 100 µM (inactive)
GI50 [27]: > 100 µM (inactive)
GI50 [28]: > 100 µM (inactive)
GI50 [29]: > 100 µM (inactive)
GI50 [56]: > 100 µM (inactive)
GI50 [30]: > 100 µM (inactive)
GI50 [31]: > 100 µM (inactive)
GI50 [32]: > 100 µM (inactive)
GI50 [33]: > 100 µM (inactive)
GI50 [34]: > 100 µM (inactive)
GI50 [35]: > 100 µM (inactive)
GI50 [37]: > 100 µM (inactive)
GI50 [38]: > 100 µM (inactive)
GI50 [39]: > 100 µM (inactive)
GI50 [40]: > 100 µM (inactive)
GI50 [41]: > 100 µM (inactive)
GI50 [42]: > 100 µM (inactive)
GI50 [57]: > 100 µM (inactive)
GI50 [43]: > 100 µM (inactive)
GI50 [44]: > 100 µM (inactive)
GI50 [45]: > 100 µM (inactive)
GI50 [47]: > 100 µM (inactive)
GI50 [48]: > 100 µM (inactive)
GI50 [49]: > 100 µM (inactive)
GI50 [58]: > 100 µM (inactive)
GI50 [50]: > 100 µM (inactive)
GI50 [59]: > 100 µM (inactive)
GI50 [51]: > 100 µM (inactive)
GI50 [52]: > 100 µM (inactive)
